# Results published in ChEMBL document CHEMBL4184259, “Design, synthesis and evaluation of 4'-OH-flurbiprofen-chalcone hybrids as potential multifunctional agents for Alzheimer's disease treatment” (Bioorg Med Chem, 2018).
# Active and inactive are the calls of the source. The rule behind the calls is not given here.
# Tests used:
# [1] = Antioxidant activity assessed as trolox equivalent of […]-induced radical scavenging activity at 1 to 10 uM pretreated for 15 mins followed by […] addition measured at 1 min interval for 90 mins by ORAC-FL assay; format: functional
# [2] = molecular target: Amyloid-beta precursor protein (Homo sapiens) (UniProt P05067); experiment: Inhibition of self-induced aggregation of amyloid beta (1 to 42) (unknown origin) at 25 uM after 24 hrs by thioflavin T fluorescence method relative to control
# Chain of Amyloid-beta precursor protein (Homo sapiens) (P05067 whole entry): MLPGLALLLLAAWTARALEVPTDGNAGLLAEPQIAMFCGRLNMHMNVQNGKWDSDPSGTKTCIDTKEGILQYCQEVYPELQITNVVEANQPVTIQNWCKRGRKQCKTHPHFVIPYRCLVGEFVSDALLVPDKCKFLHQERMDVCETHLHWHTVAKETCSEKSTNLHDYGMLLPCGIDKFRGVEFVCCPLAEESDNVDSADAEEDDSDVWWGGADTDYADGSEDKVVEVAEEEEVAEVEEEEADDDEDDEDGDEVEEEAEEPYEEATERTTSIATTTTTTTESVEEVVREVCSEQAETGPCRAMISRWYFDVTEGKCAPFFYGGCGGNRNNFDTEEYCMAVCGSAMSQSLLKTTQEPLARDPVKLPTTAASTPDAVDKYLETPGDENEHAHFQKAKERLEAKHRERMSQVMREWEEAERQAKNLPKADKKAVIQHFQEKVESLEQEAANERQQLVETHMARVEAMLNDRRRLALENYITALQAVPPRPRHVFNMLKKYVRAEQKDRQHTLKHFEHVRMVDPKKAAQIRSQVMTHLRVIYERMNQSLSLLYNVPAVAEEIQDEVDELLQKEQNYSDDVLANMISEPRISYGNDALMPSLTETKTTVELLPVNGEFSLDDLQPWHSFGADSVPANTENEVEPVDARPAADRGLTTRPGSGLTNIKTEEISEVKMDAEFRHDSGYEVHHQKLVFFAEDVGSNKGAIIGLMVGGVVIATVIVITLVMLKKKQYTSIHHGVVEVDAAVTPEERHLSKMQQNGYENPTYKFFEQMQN
# [3] = Inhibition of cupric ion-mediated amyloid beta (1 to 42) aggregation at 25 uM after 24 hrs by thioflavin T fluorescence assay relative to control
# BV-2 [4] = experiment: Cytotoxicity against mouse BV2 cells assessed as effect on cell viability up to 10 uM after 30 mins by MTT assay; format: cell-based; details: bv-2, 0.5 h
# BV-2 [5] = experiment: Cytotoxicity against mouse BV2 cells assessed as reduction in cell viability at 40 uM after 30 mins by MTT assay relative to control; format: cell-based; details: bv-2, 0.5 h
# BV-2 [6] = experiment: Cytotoxicity against LPS-induced mouse BV2 cells assessed as effect on cell viability at 2.5 to 10 uM pretreated for 30 mins followed by LPS-stimulation after 24 hrs by MTT assay; format: cell-based; details: bv-2, 24 h
# BV-2 [7] = experiment: Antiinflammatory activity in mouse BV2 cells assessed as inhibition of LPS-induced nitric oxide production at 2.5 uM pretreated for 30 mins followed by LPS-stimulation measured after 24 hrs by Griess assay relative to control; format: functional
# BV-2 [8] = experiment: Antiinflammatory activity in mouse BV2 cells assessed as inhibition of LPS-induced nitric oxide production at 10 uM pretreated for 30 mins followed by LPS-stimulation measured after 24 hrs by Griess assay relative to control; format: functional
# BV-2 [9] = experiment: Antiinflammatory activity in mouse BV2 cells assessed as inhibition of LPS-induced TNFalpha production at 2.5 uM pretreated for 30 mins followed by LPS-stimulation measured after 24 hrs by ELISA relative to control; format: functional
# BV-2 [10] = experiment: Antiinflammatory activity in mouse BV2 cells assessed as inhibition of LPS-induced TNFalpha production at 10 uM pretreated for 30 mins followed by LPS-stimulation measured after 24 hrs by ELISA relative to control; format: functional
# BV-2 [11] = experiment: Cytotoxicity against LPS-induced mouse BV2 cells assessed as effect on cell viability at 0.5 to 10 uM pretreated for 30 mins followed by LPS-stimulation after 24 hrs by MTT assay; format: cell-based; details: bv-2, 24 h
# BV-2 [12] = experiment: Antiinflammatory activity in mouse BV2 cells assessed as inhibition of LPS-induced nitric oxide production at 0.5 uM pretreated for 30 mins followed by LPS-stimulation measured after 24 hrs by Griess assay relative to control; format: functional
# BV-2 [13] = experiment: Antiinflammatory activity in mouse BV2 cells assessed as inhibition of LPS-induced TNFalpha production at 0.5 uM pretreated for 30 mins followed by LPS-stimulation measured after 24 hrs by ELISA relative to control; format: functional
# [14] = Metal chelating activity assessed as Cu2+-compound complex formation by measuring shift in maximum absorption wavelength at 37.5 uM after 30 mins by UV-Vis spectral analysis
# [15] = Metal chelating activity assessed as Al3+-compound complex formation by measuring shift in maximum absorption wavelength at 37.5 uM after 30 mins by UV-Vis spectral analysis
# [16] = Metal chelating activity assessed as mole fraction of compound required to show 1:1 stoichiometry for Cu2+-compound complex by UV-vis spectral analysis
# [17] = Effective permeability of the compound in PBS/EtOH at 100 ug/ml after 18 hrs by PAMPA-BBB assay
# [18] = Metal chelating activity assessed as Fe2+-compound complex formation by measuring shift in maximum absorption wavelength at 37.5 uM after 30 mins by UV-Vis spectral analysis
# [19] = Metal chelating activity assessed as Zn2+-compound complex formation by measuring shift in maximum absorption wavelength at 37.5 uM after 30 mins by UV-Vis spectral analysis
Compound,Activity [1],inhibition [2],inhibition [3],also measured
CC(C(=O)O)c1ccc(-c2ccc(O)c(C(=O)/C=C/c3cccnc3)c2)c(F)c1 (centres undefined),1.1 equiv,8.3%,47%,–
COc1cc(/C=C/C(=O)CC(=O)/C=C/c2ccc(O)c(OC)c2)ccc1O,–,–,69.5%,–
CC(C(=O)O)c1ccc(-c2ccc(O)c(C(=O)/C=C/c3ccccc3N(C)C)c2)c(F)c1 (centres undefined),0.77 equiv,36.8%,20.1%,–
CC(C(=O)O)c1ccc(-c2ccc(O)c(C(=O)/C=C/c3cccs3)c2)c(F)c1 (centres undefined),1.2 equiv,16.6%,12.1%,–
COc1ccc(/C=C/C(=O)c2cc(-c3ccc(C(C)C(=O)O)cc3F)ccc2O)cc1OC (centres undefined),1.56 equiv,14.2%,24.5%,–
COc1ccc(/C=C/C(=O)c2cc(-c3ccc(C(C)C(=O)O)cc3F)ccc2O)cc1O (centres undefined),2 equiv,31%,14.6%,–
CC(C(=O)O)c1ccc(-c2ccccc2)c(F)c1 (centres undefined) [FLURBIPROFEN],0.14 equiv,12.3%,6.2%,Activity (BV-2 [4]): Non-Toxic; Activity (BV-2 [5]): Non-Toxic; Activity (BV-2 [6]): Non-Toxic; inhibition at 2.5 µM (BV-2 [7]): 11.8%; inhibition at 10 µM (BV-2 [8]): 23%; inhibition at 2.5 µM (BV-2 [9]): 9.6%; inhibition at 10 µM (BV-2 [10]): 30.3%
CC(C(=O)O)c1ccc(-c2ccc(O)c(C(=O)/C=C/c3ccc(N4CCOCC4)cc3)c2)c(F)c1 (centres undefined),2.23 equiv,51.3%,47.2%,–
CC(C(=O)O)c1ccc(-c2ccc(O)c(C(=O)/C=C/c3ccc(N4CCCCC4)cc3)c2)c(F)c1 (centres undefined),1.1 equiv,31.5%,53.8%,–
COc1cccc(/C=C/C(=O)c2cc(-c3ccc(C(C)C(=O)O)cc3F)ccc2O)c1O (centres undefined),1.6 equiv,29%,13.4%,–
COc1ccc(/C=C/C(=O)c2cc(-c3ccc(C(C)C(=O)O)cc3F)ccc2O)c(OC)c1 (centres undefined),1.05 equiv,18.8%,45.3%,–
Cc1ccc(/C=C/C(=O)c2cc(-c3ccc(C(C)C(=O)O)cc3F)ccc2O)cc1 (centres undefined),0.42 equiv,23.6%,18.7%,–
CC(C(=O)O)c1ccc(-c2ccc(O)c(C(=O)/C=C/c3ccc(O)cc3)c2)c(F)c1 (centres undefined),3.5 equiv,18.7%,26.1%,–
CC(C(=O)O)c1ccc(-c2ccc(O)c(C(=O)/C=C/c3ccncc3)c2)c(F)c1 (centres undefined),0.9 equiv,18.2%,52.8%,–
CCN(CC)c1ccc(/C=C/C(=O)c2cc(-c3ccc(C(C)C(=O)O)cc3F)ccc2O)cc1 (centres undefined),3.3 equiv,78.2%,95%,"Activity (BV-2 [4]): Non-Toxic; Activity (BV-2 [5]): 64.9%; Activity (BV-2 [11]): Non-Toxic; inhibition at 2.5 µM (BV-2 [7]): 46.3%; inhibition at 10 µM (BV-2 [8]): 68.4%; inhibition at 0.5 µM (BV-2 [12]): 30.1%; inhibition at 2.5 µM (BV-2 [9]): 46.2%; inhibition at 10 µM (BV-2 [10]): 65.4%; inhibition at 0.5 µM (BV-2 [13]): 14.3%; Activity [14]: 500 nm; Activity [15]: 516 nm; Activity [16]: 1.04 molar ratio; Papp at 18 h, 100 ug/ml [17]: 6.66 ×10⁻⁶ cm/s"
COc1cc2c(cc1OC)C(=O)C(CC1CCN(Cc3ccccc3)CC1)C2 (centres undefined),–,–,< 5%,–
COc1ccc(/C=C/C(=O)c2cc(-c3ccc(C(C)C(=O)O)cc3F)ccc2O)cc1 (centres undefined),0.61 equiv,32.9%,29.1%,–
COc1ccccc1/C=C/C(=O)c1cc(-c2ccc(C(C)C(=O)O)cc2F)ccc1O (centres undefined),1.06 equiv,25.1%,18.9%,–
CC(C(=O)O)c1ccc(-c2ccc(O)c(C(=O)/C=C/c3ccccc3O)c2)c(F)c1 (centres undefined),3.4 equiv,23.1%,16.3%,–
COc1ccc(O)c(/C=C/C(=O)c2cc(-c3ccc(C(C)C(=O)O)cc3F)ccc2O)c1 (centres undefined),2.5 equiv,38.1%,22.2%,–
CC(C(=O)O)c1ccc(-c2ccc(O)c(C(=O)/C=C/c3ccc(N(C)C)cc3)c2)c(F)c1 (centres undefined),3.1 equiv,60%,52.4%,"Activity (BV-2 [4]): Non-Toxic; Activity (BV-2 [5]): 69.1%; Activity (BV-2 [11]): Non-Toxic; inhibition at 2.5 µM (BV-2 [7]): 36%; inhibition at 10 µM (BV-2 [8]): 64.7%; inhibition at 0.5 µM (BV-2 [12]): 25.7%; inhibition at 2.5 µM (BV-2 [9]): 39.6%; inhibition at 10 µM (BV-2 [10]): 61.5%; inhibition at 0.5 µM (BV-2 [13]): 12.1%; Activity [14]: 492 nm; Activity [15]: 500 nm; Activity [18]: inactive; Activity [19]: inactive; Activity [16]: 0.99 molar ratio; Papp at 18 h, 100 ug/ml [17]: 2.25 ×10⁻⁶ cm/s"
